Results taken from PMC4258814, “Differences between murine arylamine N-acetyltransferase type 1 and human arylamine N-acetyltransferase type 2 defined by substrate specificity and inhibitor binding” (BMC Pharmacology & Toxicology, 2014).
Changes are numbered by the printed parent chain.

Tests used:
(MESAU)NAT2*1 = test system: (MESAU)NAT2*1; set-up: method as in PMID 15627487, PMID 18280460; details: substrate 500 μM, relative to substrate with highest specific activity (100%), mean of 3 ± SD, ref [8], [22]; cited from earlier work
(MOUSE)NAT2*1 = molecular target: T1, (MOUSE)NAT2*1 (Mus musculus, UniProt P50295); experiment: Substrate specific N-acetylation profile; assay type: biochemical; details: substrate 500 μM, relative to substrate with highest specific activity (100%), mean of 3 ± SD
T1 construct: made in house
T1 sequence (P50295 1-290): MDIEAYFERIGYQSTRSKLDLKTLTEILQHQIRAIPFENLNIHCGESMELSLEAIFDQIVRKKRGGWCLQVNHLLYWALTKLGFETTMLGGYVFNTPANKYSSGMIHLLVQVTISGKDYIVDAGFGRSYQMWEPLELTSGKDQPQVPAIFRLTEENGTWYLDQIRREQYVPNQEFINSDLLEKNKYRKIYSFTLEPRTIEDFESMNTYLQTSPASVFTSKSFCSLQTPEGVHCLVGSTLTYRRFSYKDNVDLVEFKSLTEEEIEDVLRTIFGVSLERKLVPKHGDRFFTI

(MOUSE)NAT2_R127G = molecular target: T2, (MOUSE)NAT2_R127G (Mus musculus, UniProt P50295, R127G); experiment: Substrate specific N-acetylation profile; assay type: biochemical; details: (MOUSE)NAT2 R127G; substrate 500 μM; relative to substrate with highest specific activity (100%); mean of 3 ± SD
T2 construct: made in house
T2 sequence (P50295 1-290 R127G): T1 sequence (P50295 1-290) with R127G

(MOUSE)NAT1*1 = molecular target: T3, (MOUSE)NAT1*1 (Mus musculus, UniProt P50294); experiment: Substrate specific N-acetylation profile; assay type: biochemical; details: for % specific activity values: substrate 500 μM, relative to substrate with highest specific activity (100%), mean of 3 ± SD
T3 construct: The open reading frame of (MOUSE)Nat1*1 [32] was subcloned; hexa-His (N, cleaved yes); made in house; host or cells: Escherichia coli BL21(DE3)CodonPlus-RIL
T3 sequence (P50294 1-290): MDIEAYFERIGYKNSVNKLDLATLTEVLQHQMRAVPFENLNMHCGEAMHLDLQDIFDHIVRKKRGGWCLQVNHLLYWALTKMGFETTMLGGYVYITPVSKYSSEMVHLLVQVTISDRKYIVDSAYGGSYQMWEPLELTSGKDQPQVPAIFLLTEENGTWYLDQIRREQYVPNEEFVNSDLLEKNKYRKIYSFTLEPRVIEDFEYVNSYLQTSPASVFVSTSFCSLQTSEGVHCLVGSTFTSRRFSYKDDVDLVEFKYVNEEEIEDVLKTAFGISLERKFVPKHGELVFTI

(HUMAN)NAT1*4 = test system: (HUMAN)NAT1*4; set-up: method as in PMID 15627487, PMID 18280460; details: substrate 500 μM, relative to substrate with highest specific activity (100%), mean of 3 ± SD, ref [8], [22]; cited from earlier work
[1] = ref [56]–[61], cited from earlier work
(HUMAN)NAT2*4 = molecular target: T4, (HUMAN)NAT2*4 (Homo sapiens, UniProt P11245); set-up: method as in PMID 15627487, PMID 18280460; details: substrate 500 μM, relative to substrate with highest specific activity (100%), mean of 3 ± SD, ref [8], [22]; cited from earlier work
T4 construct: made in house
T4 sequence (P11245 1-290): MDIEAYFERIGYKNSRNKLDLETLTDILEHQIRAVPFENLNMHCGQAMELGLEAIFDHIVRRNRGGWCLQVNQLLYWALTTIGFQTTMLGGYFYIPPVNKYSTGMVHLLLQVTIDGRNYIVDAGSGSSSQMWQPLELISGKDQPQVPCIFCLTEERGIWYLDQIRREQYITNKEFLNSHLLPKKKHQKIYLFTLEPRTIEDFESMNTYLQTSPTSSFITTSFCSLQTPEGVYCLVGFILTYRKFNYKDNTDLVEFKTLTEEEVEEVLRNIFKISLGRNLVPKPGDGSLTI

(MOUSE)NAT2_F125S = molecular target: T5, (MOUSE)NAT2_F125S (Mus musculus, UniProt P50295, F125S); experiment: Substrate specific N-acetylation profile; assay type: biochemical; details: (MOUSE)NAT2 F125S; substrate 500 μM; relative to substrate with highest specific activity (100%); mean of 3 ± SD
T5 construct: His tag (only implied by Ni-NTA purification) (cleaved yes); made in house; host or cells: E. coli Rosetta(DE3)pLysS
T5 sequence (P50295 1-290 F125S): T1 sequence (P50295 1-290) with F125S

(MOUSE)NAT2_R127L = molecular target: T6, (MOUSE)NAT2_R127L (Mus musculus, UniProt P50295, R127L); experiment: Substrate specific N-acetylation profile; assay type: biochemical; details: for % specific activity values: (MOUSE)NAT2 R127L, substrate 500 μM, relative to substrate with highest specific activity (100%), mean of 3 ± SD
T6 construct: made in house
T6 sequence (P50295 1-290 R127L): T1 sequence (P50295 1-290) with R127L

Row | SMILES | % specific activity values ((MESAU)NAT2*1) | % specific activity values ((MOUSE)NAT2*1) | % specific activity values ((MOUSE)NAT2_R127G) | % specific activity values ((MOUSE)NAT1*1) | % specific activity values ((HUMAN)NAT1*4) | pKa(H) (NH3^+) [1] | % specific activity values ((HUMAN)NAT2*4) | % specific activity values ((MOUSE)NAT2_F125S) | % specific activity values ((MOUSE)NAT2_R127L) | pKaH of acetyl acceptor amine ([1]; as summarised in text from Table S1) | pKa(H) (α-COOH) [1] | pKa(H) (γ-COOH) [1] | Maximal specific activity ((MOUSE)NAT1*1; best substrate, 500 μM) | pKa(H) (NH2^+-NH3^+) [1] | pKa(H) (NH-NH3^+) [1] | pKa(H) (pyridine) [1] | Maximal specific activity ((MOUSE)NAT2_R127L; (MOUSE)NAT2_R127L, best substrate, 500 μM)
1 | Nc1ccc(Cl)cc1 [4CA, 4-chloroaniline] | 61 ± 2% | 46 ± 4% | 54 ± 3% | 18 ± 3% | 36 ± 2% | 3.8 (NH3^+) | 71 ± 3% | 56 ± 2% | 70 ± 1% | – | – | – | – | – | – | – | –
2 | Nc1ccc(O)c(C(=O)O)c1 [5AS, 5-aminosalicylate] | 30 ± 1% | 37 ± 1% | 94 ± 1% | 76 ± 6% | 64 ± 3% | – | 64 ± 2% | 74 ± 1% | 65 ± 9% | – | – | – | – | – | – | – | –
3 | Nc1ccc(I)cc1 [4IA, 4-iodoaniline] | 81 ± 1% | 72 ± 3% | 97 ± 1% | 28 ± 3% | 63 ± 1% | 3.8 (NH3^+) | 65 ± 2% | 69 ± 2% | 74 ± 8% | – | – | – | – | – | – | – | –
4 | Nc1ccc(C(=O)N[C@@H](CCC(=O)O)C(=O)O)cc1 [4ABglu, 4-aminobenzoyl glutamate] | 57 ± 3% | 87 ± 1% | 9 ± 1% | 8 ± 7% | 20 ± 1% | 2.7 | 3 ± 1% | 19 ± 1% | 8 ± 1% | < 3 | 3.6 | 4.7 | – | – | – | – | –
5 | Nc1ccc(Oc2ccccc2)cc1 [POA, 4-phenoxyaniline] | 22 ± 1% | 20 ± 2% | 67 ± 1% | 6 ± 1% | 17 ± 7% | 4.36 (NH3^+) | 62 ± 11% | 62 ± 2% | 61 ± 2% | – | – | – | – | – | – | – | –
6 | NNC(=O)c1ccncc1 [INH, isoniazid] | 1 ± 1% | 2 ± 2% | 63 ± 10% | 100 ± 6% | 0 ± 2% | – | 62 ± 2% | 38 ± 2% | 76 ± 14% | – | – | – | 104 µM/s/mg | 2.0 | 3.9 | 10.8 | –
7 | COc1ccc(N)cc1OC [4AV, 4-aminoveratrole] | 32 ± 1% | 90 ± 1% | 66 ± 3% | 28 ± 6% | 25 ± 2% | 4.7 (NH3^+) | 57 ± 3% | 90 ± 1% | 100 ± 10% | – | – | – | – | – | – | – | 82.5 µM/s/mg
